{"source": "patent US12409237B1", "about": "“Methods and models for assessing efficacy of immunotherapies” (The Jackson Laboratory, priority 2016, dated 2025)", "test_system": "human BL0293 tumor cells (bladder cancer cells)", "experiment": "Tumor growth of BL0293 patient-derived xenograft in NSG-Quad mice engrafted with human CD34+ hematopoietic stem cells", "format": "in vivo, mouse", "details": "NSG-Quad mice with human CD34+ HSC and BL0293 xenografts; intravenous 10 mg/kg on day 0, then 5 mg/kg on days 5, 10 and 15; versus vehicle; tumors 60-100 mm^3 at grouping", "protocol": "NSG-Quad mice were irradiated with 50 cGy whole body radiation. NSG-SGM3 mice were irradiated with 50 cGy whole body radiation and NSG mice were irradiated with 100 cGy whole body radiation as controls. Each mouse received about 100,000 human CD34^+ hematopoietic stem cells from the same donor by injection. Blood cells obtained by retro-orbital bleeding at 10 weeks post-engraftment were assessed by flow cytometry for mouse CD45, human CD45, human CD20, human CD3, human CD33, human CD14, and human CD56 (FIG. 1A-F). Live cells were gated using LIVE/DEAD® (ThermFisher Scientific).\nBR1126, MDA-MB-231, TM1149, and BL0293 tumor cells were separately implanted subcutaneously into NSG-Quad and NSG-SGM3 mice at 7-12 weeks post-CD34^+-cell engraftment (see Example 1). Tumor sizes were measured with calipers.\nNSG-Quad mice xenografted with human BL0293 tumor cells (bladder cancer cells) were grouped when tumors reached 60-100 mm^3, and mice were then administered intravenous pembrolizumab at 10 mg/kg on day 0 followed by 5 mg/kg on days 5, 10, and 15. Tumor sizes were measured by calipers.\nFIG. 5 is a graph depicting tumor volumes for NSG-Quad mice that have human CD34^+ hematopoietic stem cell xenografts and BL0293 patient-derived xenografts and receiving either pembrolizumab (Keytruda®) or vehicle. Each data point corresponds to a single mouse at a specific time-point. […]", "note": "“Also recorded” adds a separate entry of the source.", "data": [{"substance": "pembrolizumab", "values": [{"measurement": "tumor growth (tumor volume measured by calipers)", "value": "reduced tumor growth rates; also recorded: slower tumor growth on average"}]}]}
